What was measured:
topoisomerase II = biological target: T1, topoisomerase II (Homo sapiens, UniProt P11388); experiment: Topoisomerase II inhibition (pBR322 relaxation); type: biochemical; design: key to Inhibiting Activity: -: a complete change from a supercoiled type to a relaxation type; +: a change in a medium degree; ++: most of supercoiled type remained; +++: there was no decrease in a supercoiled type at all
T1 construct: purchased TopoGEN
Method: (1) One μl of 0.25 μg/μl pBR322 DNA (manufactured by Takara Shuzo) was added to a mixture of 2 μl of topoisomerase II (manufactured by TopoGEN, 2 units/μl), 2 μl of a buffer with a ten-fold diluted concentration [0.5M Tris-HCl (pH 8.0), 1.2M KCl, 0.1M MgCl2, 5 mM adenosine triphosphate and 5 mM dithiothreitol], 2 μl of 0.1% bovine serum albumin (manufactured by Takara Shuzo), 11 μl of distilled water and 2 μl of distilled water (a control) or a sample (50, 100, 200, 500, 1000 or 2500 μM of GM) and made to react at 37° C. After the reaction for 30 minutes, the reaction was stopped by adding 2 μl aqueous solution of 1% sodium dodecylsulfate, 50% glycerol and 0.02% Bromophenol Blue.
The above reaction solution (20 μl) was applied to 1% agarose gel prepared from agarose L03 (manufactured by Takara Shuzo) and TAE buffer [40 mM Tris, 5 mM sodium acetate and 1 mM disodium ethylenediaminetetraacetate (EDTA); adjusted to pH 7.8 with acetic acid] and electrophoresis was conducted in the TAE buffer. After the electrophoresis, the gel was dipped in an aqueous solution of 1 μg/ml ethidium bromide and irradiated with ultraviolet ray to observe the electrophoretic pattern of DNA.

p24 antigen = p24 antigen in culture supernatant of CEM-3B cells; type: cell-based, HIV-1IIIB; conditions: one day
Method: (2) Concentration of p24 antigen contained in the supernatant liquid in the culture after incubation of the CEM-3B cells mentioned in Example 15-(1) for one day was measured.

[1] = system: sensitivity reaction of a delayed type; experiment: Delayed type hypersensitivity (ovine erythrocyte, pedal edema); type: in vivo, mouse (C57BL/6); conditions: 30 and 300 mg/kg i.p., three days
Method: C57BL/6 mice (female, five weeks age, body weight about 20 g) were purchased from Nippon SLC and used for the experiment after a preliminary breeding for one week at our end. Ovine erythrocyte (manufactured by Shimizu Jikken Zairyo) which is an antigen provoking the sensitivity reaction of a delayed type was washed three times with a physiological saline solution (manufactured by Otsuka Pharmaceutical) to make […] and 203 μl of it was intraperitoneally injected to mice to subject to an antigen sensitization.
After five days from the sensitization, 40 μl of antigen which was prepared by the same manner was injected to right paw to induce an antigen whereby pedal edema was provoked. From the antigen-sensitized date, GM was intraperitoneally administered to mice (one group consisting of five mice) once daily at the dose of 30 mg/kg or 300 mg/kg for three days.
After two days from the antigen induction, volume of right paw of the mice was measured by a measuring device for pedal edema (manufactured by Ugo Basile) and used as an index for the sensitivity reaction of a delayed type. The measured value was given by calculating the increasing rate from the right paw volume of the mice measured before the antigen induction.

tumor necrosis factor-α = experiment: TNF-α in serum of LPS endotoxin-shock mice; type: in vivo, mouse (CDF1); conditions: for TNF in serum (Mean ± SE): n=5, control 2.32 ± 0.15
Method: (1) LPS (lipopolysaccharide manufactured by Sigma) was intraperitoneally injected (10 μg/mouse) to female CDF1 mice of eight weeks age (purchased from Nippon SLC at seven weeks age with bodyweight of 20 g followed by subjecting a preliminary breeding for one week at our end) and endotoxin-shock models were prepared. GM was orally administered at the dose of 100 and 1000 mg/kg at thirty minutes before administration of LPS. After one hour from the administration of LPS, blood was collected from the mice, serum was separated and amount of the tumor necrosis factor-α in the serum was measured by a commercially available ELISA kit (manufactured by Endogen).

NO production = experiment: Inhibition of LPS-induced NO production in RAW264.7; type: cell-based, mouse; conditions: RAW 264.7
Method: Inhibition activity of GM to NO production and to cell damage was measured as follows using mouse macrophage cell strain RAW264.7 cells (ATCC TIB 71) and LPS.
Dulbecco-modified Eagle's medium (manufactured by Life Technologies Oriental; 11054-020) containing 2 mM of L-glutamine (manufactured by Life Technologies Oriental; 25030-149) containing no Phenol Red containing 5 ml of 10% fetal calf serum (manufactured by Gibco) containing 1.5×10^6 cells of RAW 264.7 was incubated in a six-well tissue culture plate in the presence of 5% carbon dioxide gas at 37° C. for 12 hours, 50μl of 50μg/ml LPS (manufactured by Sigma; L-2012) was added, then each 50 μl of 250 )i M Mn or 100 μH GM was added to each well, incubation was further continued for additional 12 hours and, after that, NO2^- produced by oxidation of NO in the medium and amount of viable cell numbers were measured. Incidentally, a sect-Lon where no LPS was added and a section where no GM was added were prepared as controls. […]

T1 sequence (P11388 whole entry): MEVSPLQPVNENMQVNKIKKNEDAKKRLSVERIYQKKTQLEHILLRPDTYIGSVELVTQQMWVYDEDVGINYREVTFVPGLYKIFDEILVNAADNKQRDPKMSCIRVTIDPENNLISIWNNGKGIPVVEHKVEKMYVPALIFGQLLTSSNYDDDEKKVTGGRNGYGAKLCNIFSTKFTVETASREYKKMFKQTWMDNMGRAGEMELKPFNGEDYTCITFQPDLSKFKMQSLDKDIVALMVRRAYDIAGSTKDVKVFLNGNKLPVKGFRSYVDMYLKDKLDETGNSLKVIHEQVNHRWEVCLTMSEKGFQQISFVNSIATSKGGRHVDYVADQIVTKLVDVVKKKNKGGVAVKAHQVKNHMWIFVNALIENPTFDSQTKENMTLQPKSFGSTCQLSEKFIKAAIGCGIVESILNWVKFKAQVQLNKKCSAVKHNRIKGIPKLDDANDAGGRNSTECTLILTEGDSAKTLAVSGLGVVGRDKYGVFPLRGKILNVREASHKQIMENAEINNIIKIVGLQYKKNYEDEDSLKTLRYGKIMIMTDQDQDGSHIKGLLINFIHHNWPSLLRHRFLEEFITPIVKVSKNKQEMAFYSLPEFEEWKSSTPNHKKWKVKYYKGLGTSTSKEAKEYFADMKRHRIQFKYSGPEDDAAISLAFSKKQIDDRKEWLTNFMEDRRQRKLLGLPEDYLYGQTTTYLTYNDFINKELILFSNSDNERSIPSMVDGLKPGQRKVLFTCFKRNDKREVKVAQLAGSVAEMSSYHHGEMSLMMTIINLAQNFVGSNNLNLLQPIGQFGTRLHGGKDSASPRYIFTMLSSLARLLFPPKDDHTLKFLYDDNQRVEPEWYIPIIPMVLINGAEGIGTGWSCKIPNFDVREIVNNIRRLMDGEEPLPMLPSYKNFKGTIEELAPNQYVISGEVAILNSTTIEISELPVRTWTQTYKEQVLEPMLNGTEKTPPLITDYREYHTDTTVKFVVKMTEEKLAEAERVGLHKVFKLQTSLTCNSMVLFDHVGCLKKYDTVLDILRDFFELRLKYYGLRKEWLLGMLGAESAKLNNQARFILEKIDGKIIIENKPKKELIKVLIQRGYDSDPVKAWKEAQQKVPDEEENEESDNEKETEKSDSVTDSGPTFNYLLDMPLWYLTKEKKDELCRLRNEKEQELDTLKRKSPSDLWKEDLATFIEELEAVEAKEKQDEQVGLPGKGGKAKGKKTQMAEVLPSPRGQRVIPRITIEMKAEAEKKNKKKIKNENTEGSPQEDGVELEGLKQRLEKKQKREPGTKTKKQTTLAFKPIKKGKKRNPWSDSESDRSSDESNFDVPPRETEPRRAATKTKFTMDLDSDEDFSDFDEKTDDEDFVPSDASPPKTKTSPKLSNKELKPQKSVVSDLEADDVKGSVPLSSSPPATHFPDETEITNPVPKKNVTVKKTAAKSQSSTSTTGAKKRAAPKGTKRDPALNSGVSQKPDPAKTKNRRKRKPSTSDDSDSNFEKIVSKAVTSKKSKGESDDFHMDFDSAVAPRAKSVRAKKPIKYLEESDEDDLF

N[C@@H](CCC(=O)N[C@@H](CSC1C=C(O)C(=O)C1)C(=O)NCC(=O)O)C(=O)O (stereo partly shown) [GM, 2-hydroxy-4-glutathion-S-yl-2-cyclopenten-1-one]
concentration at which change of DNA to relaxation type was partially or completely inhibited (topoisomerase II): ≥ 10 µM | Inhibiting Activity (topoisomerase II; 5 μM): - | Inhibiting Activity (topoisomerase II; 10 μM): + | Inhibiting Activity (topoisomerase II; 20 μM): ++ | Inhibiting Activity (topoisomerase II; 50 μM): ++ | Inhibiting Activity (topoisomerase II; 100 μM): +++ | Inhibiting Activity (topoisomerase II; 250 μM): +++ | p24 concentration in supernatant (p24 antigen): the p24 concentration decreased depending upon the concentration of the added GM | inhibiting action to a sensitivity reaction of a delayed type [1]: significant inhibiting action to a sensitivity reaction of a delayed type | TNF in serum (Mean ± SE) (tumor necrosis factor-α; 100 mg/kg oral): 2.22 ± 0.26 ng/mL | inhibition of production of tumor necrosis factor (in words) (tumor necrosis factor-α; 1000 mg/kg oral): significantly inhibited | TNF in serum (Mean ± SE) (tumor necrosis factor-α; 1000 mg/kg oral): 1.16 ± 0.26 ng/mL | inhibition of NO production (NO production): inhibited the NO production induced by LPS
